Like-named read-outs stand apart in the source and are kept apart here. Blank lines part the entries; values can stand above or below the compound they belong to. Starred links: 1 amine or outer side, 2 acyl side, 3 side chain; linkers in the order of their positions; H or OH if unused. Positions of bridges follow the written chain, without caps; N, C: chain ends. Non-standard residues stand in square brackets, D forms with d. Residues, ends and D or L forms follow the SMILES beside them. *: point of attachment. X2 = NCCCC[C@H](NC(=O)[C@H](CS)NC(=O)[C@H](CCCCN)NC(=O)[C@@H](N)CNC(=O)C*)C(N)=O; X1 = NCCCC[C@H](NC(=O)[C@H](CS)NC(=O)CNC(=O)CNC(=O)C*)C(N)=O; hhCys(CH2CO) = O=C([C@H](CCCSCC(=O)[*:3])N[*:1])[*:2]; εLys = N[C@@H](CCCCN[*:1])C(=O)[*:2]; X3 = CC(C)(S)CNCCN(CCCCC*)CC(C)(C)S
Key:
[1] = biological target: T1, CT receptor (Homo sapiens, UniProt P30988); experiment: Displacement of 125I-CT from CT receptor in T-47D cell membranes; format: binding
T1 construct: Assays using microsomal membrane fractions of rat brain and T-47D cells; host or cells: T-47D
T1 sequence (P30988 25-474): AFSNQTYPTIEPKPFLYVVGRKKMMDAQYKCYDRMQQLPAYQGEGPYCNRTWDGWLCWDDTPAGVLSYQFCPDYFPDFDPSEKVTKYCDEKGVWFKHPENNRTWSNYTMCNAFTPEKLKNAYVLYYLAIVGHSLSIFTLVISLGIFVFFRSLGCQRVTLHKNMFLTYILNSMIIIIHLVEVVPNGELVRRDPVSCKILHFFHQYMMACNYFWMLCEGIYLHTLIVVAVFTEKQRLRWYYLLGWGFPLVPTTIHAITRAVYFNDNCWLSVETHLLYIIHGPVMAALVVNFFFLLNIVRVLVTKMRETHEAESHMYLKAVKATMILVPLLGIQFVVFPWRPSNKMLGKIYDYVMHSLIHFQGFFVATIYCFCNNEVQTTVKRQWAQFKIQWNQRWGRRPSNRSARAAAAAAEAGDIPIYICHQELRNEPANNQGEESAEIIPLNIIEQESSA
Procedure: (§1) Peptide reagents within the scope of the invention, or ReO complexed embodiments thereof, were tested using in vitro assays that measure their ability to inhibit the specific binding of ^125I-CT to the CT receptor, using membranes from rat brain or from a breast tumor cell line, and on whole cells from breast tumor cell lines, as described in detail below.
(§2) Assays using microsomal membrane fractions of rat brain and T-47D cells (obtained from the American Type Culture collection, Rockville, Md., ATCC Accession No. HTB-133) were used to identify analogs with high affinity for the CT receptor according to the method of Fisher et al. (1977, British J. Cancer 35: 777-784). Briefly, tissue was minced and homogenized. The membranes were washed several times, assayed for protein content and used in the binding assay. Membrane protein was incubated with 0.1 μCi of ^125I-salmon CT (Amersham, Cleveland, Ohio) in he presence or absence of varying concentrations of reagents to be tested. Both uncomplexed and ReO complexed reagents were tested. One hundred percent specific binding of ^125I-CT to the CT receptor was defined as the difference between total ^125I-CT binding and nonspecific binding of ^125I-CT measured in the presence of a receptor-saturating concentration (1 μM) of excess unlabeled salmon CT (Sigma, St. Louis, Mo.).

[2] = Biodistribution of 99mTc-CT peptide in rat; format: in vivo; details: 99mTc-labeled peptide; for tissue uptake dose at […] / tissue uptake at […]: 0.025 mCi; for tissue uptake dose at […]: 90 minutes; for tissue uptake at […]: 90 minutes post-injection
Procedure: (§3) CT receptor expressing breast cancer cells (T47D and MCF-7) were implanted into immune deficient mice or Sprague-Dawley rats and allowed to grow tumors. For testing new ^99mTc-CT peptides, tumor-bearing mice or rats were injected with approximately 0.025 mCi at approximately 6 mCi/10 nmol peptide. The animals were cervically dislocated and imaged statically for 5 minutes using a gamma camera. The biodistribution of the ^99mTc-CT peptide was then determined by counting blood, tumor, target organs and muscle in a gamma counter along with standard aliquots of the injected dose. The time points for biodistribution were chosen to represent early, middle and late phases of ^99mTc-CT analog clearance. […] To assess the tumor imaging potential of selected analogs, the ratio of radioactivity in blood and various tissues were compared to that in tumor.

[3] = biological target: CT receptor; experiment: Displacement of 125I-CT from CT receptor in rat brain membranes; format: binding; details: displacement of 125I-CT (Table III)
Procedure: as §1, §2

[4] = tested on: T-47D tumor; experiment: Biodistribution of 99mTc-CT peptide, T-47D tumor in nude mouse; format: in vivo; details: 99mTc-labeled peptide, 90 minutes
Description: (§4) Breast cancer cell lines were screened for receptor expression and the best cell lines chosen for xenograft implantation in immune deficient mice. These tumor models were used to evaluate the tumor targeting potential in vivo of the high affinity peptides identified in the in vitro assays above.
as §3

[5] = as above; format: in vivo; details: 0.025 mCi, total radioactivity, 99mTc-labeled peptide; for tissue uptake dose at […]: 90 minutes
Description: as §4, §3

[6] = T-47D membranes, displacement of 125I-CT (Table III)
[7] = T-47D membranes, displacement of 125I-CT (Table III), read-out: T-47D IC50

IC50 ([1]; T-47D cell membranes (Table IV), read-out: IC50 (nM)x): 2.6 nM | PK (min) t½α [2]: 1.4 min | PK (min) t½β [2]: 19 min | tissue uptake dose at […] ([2]; Sprague-Dawley, GI tract, total radioactivity, read-out: GI tract (% ID)): 2 %ID | tissue uptake at […] ([2]; Sprague-Dawley, blood, total radioactivity): 0.027 %ID/g | tissue uptake dose at […] ([2]; Sprague-Dawley, kidneys, total radioactivity, read-out: Kidneys (% ID)): 35 %ID | tissue uptake dose at […] ([2]; Sprague-Dawley, liver, total radioactivity, read-out: Liver (% ID)): 4 %ID | tissue uptake dose at […] ([2]; Sprague-Dawley, lung, total radioactivity, read-out: Lung (% ID)): 0.53 %ID
SMILES: CC(C)C[C@H](NC(=O)[C@H](CCCCN)NC(=O)CNC(=O)[C@H](CC(C)C)NC(=O)[C@@H](NC(=O)[C@@H]1CCCSCC(=O)N[C@@H](CO)C(=O)N[C@@H](CC(N)=O)C(=O)N[C@@H](CC(C)C)C(=O)N[C@@H](CO)C(=O)N[C@@H]([C@@H](C)O)C(=O)N1)C(C)C)C(=O)N[C@@H](CO)C(=O)N[C@@H](CSCC(=O)NCC(=O)NCC(=O)N[C@@H](CS)C(=O)N[C@@H](CCCCN)C(N)=O)C(=O)N[C@@H](CCC(=O)O)C(=O)N[C@@H](CC(C)C)C(=O)N[C@@H](Cc1c[nH]cn1)C(=O)N[C@@H](CCCCN)C(=O)N[C@@H](CC(C)C)C(=O)N[C@@H](CCC(N)=O)C(=O)N[C@H](C(=O)N[C@@H](Cc1ccc(O)cc1)C(=O)N1CCC[C@H]1C(=O)N[C@@H](CCCNC(=N)N)C(=O)N[C@H](C(=O)N[C@@H](CC(N)=O)C(=O)N[C@H](C(=O)NCC(=O)N[C@@H](CO)C(=O)NCC(=O)N[C@H](C(=O)N1CCC[C@H]1C(N)=O)[C@@H](C)O)[C@@H](C)O)[C@@H](C)O)[C@@H](C)O [Peptide 4] (SNLST[hhCys(CH2CO)]VLGKLSC(X1)ELHKLQTYPRTNTGSGTP-NH2; lactam N-6)

Ki [1, 6]: 0.41 nM | IC50 [1, 7]: 0.53 nM | IC50 [3]: 2.6 nM
SMILES: CC(C)C[C@H](NC(=O)[C@H](CCCCN)NC(=O)CNC(=O)[C@H](CC(C)C)NC(=O)[C@@H](NC(=O)[C@@H]1CCCSCC(=O)N[C@@H](CO)C(=O)N[C@@H](CC(N)=O)C(=O)N[C@@H](CC(C)C)C(=O)N[C@@H](CO)C(=O)N[C@@H]([C@@H](C)O)C(=O)N1)C(C)C)C(=O)N[C@@H](CO)C(=O)N[C@@H](CSCCCCCN(CCNCC(C)(C)S)CC(C)(C)S)C(=O)N[C@@H](CCC(=O)O)C(=O)N[C@@H](CC(C)C)C(=O)N[C@@H](Cc1c[nH]cn1)C(=O)N[C@@H](CCCCN)C(=O)N[C@@H](CC(C)C)C(=O)N[C@@H](CCC(N)=O)C(=O)N[C@H](C(=O)N[C@@H](Cc1ccc(O)cc1)C(=O)N1CCC[C@H]1C(=O)N[C@@H](CCCNC(=N)N)C(=O)N[C@H](C(=O)N[C@@H](CC(N)=O)C(=O)N[C@H](C(=O)NCC(=O)N[C@@H](CO)C(=O)NCC(=O)N[C@H](C(=O)N1CCC[C@H]1C(N)=O)[C@@H](C)O)[C@@H](C)O)[C@@H](C)O)[C@@H](C)O [Peptide 1] (SNLST[hhCys(CH2CO)]VLGKLSC(X3)ELHKLQTYPRTNTGSGTP-NH2; lactam N-6)

PK (min) t½α [2]: 1.6 min | PK (min) t½β [2]: 17 min | tissue uptake at […] ([2]; in vivo, read-out: Blood (% ID/g)): 0.048 %ID/g | tissue uptake dose at […] ([2]; in vivo, read-out: GI tract (% ID)): 4.5 %ID | tissue uptake dose at […] ([2]; in vivo, read-out: Kidneys (% ID)): 31 %ID | tissue uptake dose at […] ([2]; in vivo, read-out: Liver (% ID)): 5.8 %ID | tissue uptake dose at […] ([2]; in vivo, read-out: Lung (% ID)): 0.56 %ID
SMILES: CC(C)C[C@H](NC(=O)[C@H](CCCCN)NC(=O)CNC(=O)[C@H](CC(C)C)NC(=O)[C@@H](NC(=O)[C@@H]1CCCSCC(=O)N[C@@H](CO)C(=O)N[C@@H](CC(N)=O)C(=O)N[C@@H](CC(C)C)C(=O)N[C@@H](CO)C(=O)N[C@@H]([C@@H](C)O)C(=O)N1)C(C)C)C(=O)N[C@@H](CO)C(=O)N[C@@H](CSCC(=O)NC[C@H](N)C(=O)N[C@@H](CCCCN)C(=O)N[C@@H](CS)C(=O)N[C@@H](CCCCN)C(N)=O)C(=O)N[C@@H](CCC(=O)O)C(=O)N[C@@H](CC(C)C)C(=O)N[C@@H](Cc1c[nH]cn1)C(=O)N[C@@H](CCCCN)C(=O)N[C@@H](CC(C)C)C(=O)N[C@@H](CCC(N)=O)C(=O)N[C@H](C(=O)N[C@@H](Cc1ccc(O)cc1)C(=O)N1CCC[C@H]1C(=O)N[C@@H](CCCNC(=N)N)C(=O)N[C@H](C(=O)N[C@@H](CC(N)=O)C(=O)N[C@H](C(=O)NCC(=O)N[C@@H](CO)C(=O)NCC(=O)N[C@H](C(=O)N1CCC[C@H]1C(N)=O)[C@@H](C)O)[C@@H](C)O)[C@@H](C)O)[C@@H](C)O [Peptide 5] (SNLST[hhCys(CH2CO)]VLGKLSC(X2)ELHKLQTYPRTNTGSGTP-NH2; lactam N-6)

Ki [1, 6]: 12 nM | IC50 [1, 7]: 16 nM | Tum:Bld [4]: 3.3 | Tum:Con [4]: 10 | tissue uptake at […] ([5]; 90 minutes post-injection): 1.6 %ID/g | tissue uptake dose at […] ([5]; GI tract, read-out: GI tract (% ID)): 5.4 %ID | tissue uptake dose at […] ([5]; kidneys, read-out: Kidneys (% ID)): 18 %ID | tissue uptake dose at […] ([5]; liver, read-out: Liver (% ID)): 5.5 %ID | tissue uptake dose at […] ([5]; lung, read-out: Lung (% ID)): 0.24 %ID | IC50 [3]: 18 nM
SMILES: CC(C)C[C@H](NC(=O)[C@H](CCCCN)NC(=O)CNC(=O)[C@H](CC(C)C)NC(=O)[C@@H](NC(=O)[C@@H]1CCCSCC(=O)N[C@@H](CO)C(=O)N[C@@H](CC(N)=O)C(=O)N[C@@H](CC(C)C)C(=O)N[C@@H](CO)C(=O)N[C@@H]([C@@H](C)O)C(=O)N1)C(C)C)C(=O)N[C@@H](CO)C(=O)N[C@@H](CCC(N)=O)C(=O)N[C@@H](CCC(=O)O)C(=O)N[C@@H](CC(C)C)C(=O)N[C@@H](Cc1c[nH]cn1)C(=O)N[C@@H](CCCCN)C(=O)N[C@@H](CC(C)C)C(=O)N[C@@H](CCC(N)=O)C(=O)N[C@H](C(=O)N[C@@H](Cc1ccc(O)cc1)C(=O)N1CCC[C@H]1C(=O)N[C@@H](CCCNC(=N)N)C(=O)N[C@H](C(=O)N[C@@H](CC(N)=O)C(=O)N[C@H](C(=O)NCC(=O)N[C@@H](CO)C(=O)NCC(=O)N[C@H](C(=O)N1CCC[C@H]1C(=O)NCCCC[C@H](N)C(=O)NCC(=O)N[C@@H](CS)C(N)=O)[C@@H](C)O)[C@@H](C)O)[C@@H](C)O)[C@@H](C)O [Peptide 2] (SNLST[hhCys(CH2CO)]VLGKLSQELHKLQTYPRTNTGSGTP[εLys]GC-NH2; lactam N-6)
